Laboratory results published in patent US6232348A, “Hydroxymethyl derivatives of 2-amino-1,2,3,4-tetrahydronaphthalene as cardiovascular agent” (Zambon Group S.p.A., priority 1997, dated 2001).

Columns and labels:
[1] = system: D1; test: D1 activity on the rabbit splenic artery (RSA); conditions: rings contracted with U46619; agonistic activity at the peak of the effect; cumulative administration
Experimental: Evaluation of the D1 Activity on the Rabbit Splenic Artery (RSA)
Artery rings were prepared according to Semeraro et al., Naunyn. Schnied. Arch. Pharmacol., 1990, 342, 539. These were contracted with U46619 (9,11-dideoxy-11α,9α -epoxy-methanprostaglandine F2α) at a submaximal concentration of […]. The tested compounds were cumulatively administered.
As reference compound (S)-N-propyl-N-{6-[2-(2-methoxyphenoxy)-ethylamino]-hexyl}-5,6-dihydroxy-1,2,3,4-tetrahydro-2-naphthylamine dihydrochloride (Ref. A), described in example 6 of the international patent application No. WO 93/19036 was employed. Furthermore a compound of the invention was compared with its corresponding compound having in 5-position a hydroxy group in the place of a hydroxymethyl group. i.e. Compound 22 of the international patent application No. WO 96/08228, (S)-N-propyl-N-{6-[2-(4-methylsulfonylphenyl)-ethylamino]hexyl}-5,6-dihydroxy-1,2,3,4-tetrahydro-2-naphthylamine dihydrobromide (Ref. B). The agonistic activity was evaluated at the peak of the effect and expressed as potency ratio (EC50 of Ref. A/EC50 of the tested compound), as shown in Table 1.

[2] = system: D2; test: D2 activity in the rabbit ear artery (REA); set-up: species or system New Zealand rabbit; conditions: electrically stimulated artery rings; agonistic activity at the peak of the effect; cumulative administration
Experimental: Evaluation of the D2 Activity in the Rabbit Ear Artery (REA)
Artery rings were prepared following the method described by Steinsland et al., Science, 1978, 443, 199, modified as follows.
Male New Zealand rabbits (weighing 2.5-3 Kg) were sacrificed by a pentobarbital intravenous injection and bled. The central ear artery was cut into 3 mm-rings. The samples were placed into a 25 ml-bath containing a Krebs solution (mM/l): sodium chloride 118, potassium chloride 4.7, calcium chloride 2.5, magnesium sulphate 1.2, sodium hydrogenocarbonate 25, potassium biphosphate 1.2, glucose 11.1, balanced with oxygen 95%/carbon dioxide 5% and maintained at 35±1° C. The Krebs solution was added with EDTA (10 μM) to present the cathecolamine oxidation, with desipramine (0.1 μM) and corticosterone (30 μM) to stop the neuronal and extraneuronal cathecolamine re-uptake.
The samples were electrically stimulated (10 Hz, 1 msec., 40-80 mA, 500 msec long) at intervals of 5 minutes.
The tested compounds were cumulatively administered.
As reference compounds the reference compounds A and B above were employed.
The agonistic activity was evaluated at the peak of the effect and expressed as potency ratio (EC50 of Ref. A/EC50 of the tested compound), as shown in Table 1.

[3] = Hypotensive activity in the anaesthetized dog; assay type: in vivo; conditions: intraduodenal (oral) administration, anaesthetized Beagle dogs; 184 nmoles/kg (compound of the invention), 5.52 nmoles/kg (Ref. B), doses equally active i.v.; 0-360 min
Experimental: Evaluation of the Hypotensive Activity in the Dog
Beagle dogs were anhaestetized with sodium pentobarbital (30 mg/kg i.v.) and a catheter was put in their carotid artery to measure the blood pressure. The catheter was connected with a pressure transductor. The compounds were administered by a catheter put in the duodenum. The effect on the average blood pressure is expressed as average effect with respect to the test time (Eavg =AUC0-360 /minutes) according to what described by Fettner S. H. et al., Eur. J. Clin. Pharmacol., 48:351-359, 1995. As reference compound the reference compound B above (Ref. B) was used. The controls were treated with the vehicle only.
The doses used for the oral administration were selected on the basis of the hypotensive activity data obtained after intravenous administration.

[4] = Absolute oral bioavailability in the dog; assay type: in vivo; conditions: Beagle dogs (4), 1 mg/kg oral by gavage vs 0.2 mg/kg bolus, domperidone pretreatment
Experimental: Evaluation of the Absolute Oral Bioavailability
Four Beagle dogs were intramuscularly treated with 20 mg of domperidone (to avoid emesis) and, after 60 minutes, with a bolus of 0.2 mg/kg of a solution of the compound of example 13. The solution of this compound was prepared by dissolving 10 mg thereof in 100 μl of ethanol and 380 μl of 0.1N HCl, the resulting solution being brought to 10 ml with water. Appropriate volumes of this solution were administered to obtain the desired dose based on the dog weight.
Venous blood sample (3 ml) were collected before drug administration and the following times after dosing: 2.5, 5, 10, 15, 20, 30, 45, 60, 90, 120, 180, 240, 300 and 360 minutes.
After a washout period of 7 days, the same 4 Beagle dogs were intramuscularly treated with 20 mg of domperidone and, after 60 minutes, orally treated by gavage with the compound of Example 13 at the dose of 1 mg/kg. […]
The following pharmacokinetic parameters were determined by non-compartmental analysis from the individual plasma concentration of the compound of Example 13: […]
AUC(()-t), the area under the plasma concentration-time curve between time zero and the last concentration observed, estimated by the linear trapezoidal rule; Absolute bioavailability (F), the percentage of oral dose that is systemically available, calculated according to the following equation: [formula] […]

Row | SMILES | D1 activity (RSA), potency ratio (EC50 of Ref. A/EC50 of the tested compound) [1] | D2 activity (REA), potency ratio (EC50 of Ref. A/EC50 of the tested compound) [2] | average effect on blood pressure (Eavg = AUC0-360/minutes) [3] | Absolute oral bioavailability (F) ([4]; listed as Example 13, 1 mg/kg) | bioavailability ([4]; dog, plasma, po, 1 mg/kg, read-out: Absolute oral bioavailability (F))
1 | CCCN(CCCCCCNCCc1ccc(S(C)(=O)=O)cc1)[C@H]1CCc2c(ccc(O)c2CO)C1 [Example 7, (S)-N-propyl-N-(6-(2-(4-methylsulfonylphenyl)ethylamino)hexyl)-5-hydroxymethyl-6-hydroxy-1,2,3,4-tetrahydro-2-naphthylamine] | 2.5 | 1.25 | -17.4±3.0 mmHg | 28-43% | 38.8 ± 7.2%
2 | CCCN(CCCCCCNCCOc1ccccc1OC)[C@H]1CCc2c(ccc(O)c2O)C1.Cl.Cl [Ref. A, (S)-N-propyl-N-{6-[2-(2-methoxyphenoxy)-ethylamino]-hexyl}-5,6-dihydroxy-1,2,3,4-tetrahydro-2-naphthylamine dihydrochloride] | 1 | 1 | – | – | –
3 | Br.Br.CCCN(CCCCCCNCCc1ccc(S(C)(=O)=O)cc1)[C@H]1CCc2c(ccc(O)c2O)C1 [Ref. B, (S)-N-propyl-N-{6-[2-(4-methylsulfonylphenyl)-ethylamino]hexyl}-5,6-dihydroxy-1,2,3,4-tetrahydro-2-naphthylamine dihydrobromide] | 50 | 3.3 | -3.5±3.9 mmHg | – | –
